Laboratory results reported in ChEMBL document CHEMBL1140107, “Design, synthesis, and evaluation of potent and selective ligands for the dopamine 3 (D3) receptor with a novel in vivo behavioral profile” (J Med Chem, 2008).

What was measured:
[1] = Aqueous solubility of the compound; conditions: aqueous medium (not further specified)
D(2) dopamine receptor = D(2) dopamine receptor (Rattus norvegicus, UniProt P61169); test: Displacement of [3H]Spiperone from D2 receptor in Sprague-Dawley rat caudate-putamen; type: tissue-based
Sequence of D(2) dopamine receptor (P61169 whole entry): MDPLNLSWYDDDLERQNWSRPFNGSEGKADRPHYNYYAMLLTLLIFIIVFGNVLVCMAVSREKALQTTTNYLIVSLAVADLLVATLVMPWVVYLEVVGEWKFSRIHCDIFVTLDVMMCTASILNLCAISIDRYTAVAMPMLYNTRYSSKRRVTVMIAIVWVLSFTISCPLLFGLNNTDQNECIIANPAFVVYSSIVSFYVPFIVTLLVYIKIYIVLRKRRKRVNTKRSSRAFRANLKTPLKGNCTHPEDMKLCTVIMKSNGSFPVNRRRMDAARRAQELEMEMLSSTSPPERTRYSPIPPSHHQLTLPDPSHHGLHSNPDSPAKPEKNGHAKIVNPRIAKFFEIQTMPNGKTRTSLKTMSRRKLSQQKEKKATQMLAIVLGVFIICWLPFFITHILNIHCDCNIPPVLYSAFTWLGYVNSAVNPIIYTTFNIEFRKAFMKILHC

D(1A) dopamine receptor = D(1A) dopamine receptor (Rattus norvegicus, UniProt P18901); test: Displacement of [3H]SCH23390 from D1-like receptor in Sprague-Dawley rat striatum
Sequence of D(1A) dopamine receptor (P18901 whole entry): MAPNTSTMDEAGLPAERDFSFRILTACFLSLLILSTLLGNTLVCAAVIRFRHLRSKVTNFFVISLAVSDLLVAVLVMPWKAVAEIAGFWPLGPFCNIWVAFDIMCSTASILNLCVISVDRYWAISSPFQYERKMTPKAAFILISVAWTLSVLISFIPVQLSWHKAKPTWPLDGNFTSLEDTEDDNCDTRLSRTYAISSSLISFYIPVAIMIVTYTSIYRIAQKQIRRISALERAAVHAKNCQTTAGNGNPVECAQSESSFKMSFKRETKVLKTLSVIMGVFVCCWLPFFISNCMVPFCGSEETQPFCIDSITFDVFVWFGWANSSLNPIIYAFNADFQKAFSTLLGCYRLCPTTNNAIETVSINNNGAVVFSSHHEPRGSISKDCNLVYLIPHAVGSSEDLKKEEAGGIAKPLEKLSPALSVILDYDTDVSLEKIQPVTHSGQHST

Row | SMILES | solubility [1] [mg/mL] | Ki (D(2) dopamine receptor) [µM] | Ki (D(1A) dopamine receptor) [µM]
1 | CCCN(CC[C@H]1CC[C@H](NC(=O)/C=C/c2ccccc2)CC1)[C@H]1CCc2nc(N)sc2C1 | – | 0.33 | –
2 | COc1ccc2c(c1)CC[C@@H]1CN(CC[C@H]3CC[C@H](NC(=O)c4ccc5ccccc5c4)CC3)CCN21 | – | > 10 | > 50
3 | CCCN[C@H]1CCc2nc(N)sc2C1 [PRAMIPEXOLE] | – | – | > 100

The next lines start with the values.

Row | solubility [1] [mg/mL] | Ki (D(2) dopamine receptor) [µM] | Ki (D(1A) dopamine receptor) [µM] | SMILES
4 | 100 | – | – | CCCN(CC[C@H]1CC[C@H](NC(=O)c2ccc3ccccc3c2)CC1)[C@H]1CCc2nc(N)sc2C1.Cl.Cl
5 | – | – | 5.4 | CCCCN(CC[C@H]1CC[C@H](NC(=O)c2ccc3ccccc3c2)CC1)[C@H]1CCc2nc(N)sc2C1
6 | – | – | 13 | CC(C)CCN(CC[C@H]1CC[C@H](NC(=O)c2ccc3ccccc3c2)CC1)[C@H]1CCc2nc(N)sc2C1
7 | – | – | 64 | Nc1nc2c(s1)C[C@@H](NCC[C@H]1CC[C@H](NC(=O)c3ccc4ccccc4c3)CC1)CC2
